# Source: patent publication US20170334899A1, “AMINO-SUBSTITUTED ISOTHIAZOLES” (Bayer Pharma Aktiengesellschaft, priority 2014, published 2017)
# Target: T1, human kinase Mps-1 (Homo sapiens, UniProt P33981)
# T1 construct: N-terminally GST-tagged human full length recombinant Mps-1 kinase; GST (N); purchased Invitrogen, Karslruhe, Germany PV4071
# T1 sequence (P33981 1-857): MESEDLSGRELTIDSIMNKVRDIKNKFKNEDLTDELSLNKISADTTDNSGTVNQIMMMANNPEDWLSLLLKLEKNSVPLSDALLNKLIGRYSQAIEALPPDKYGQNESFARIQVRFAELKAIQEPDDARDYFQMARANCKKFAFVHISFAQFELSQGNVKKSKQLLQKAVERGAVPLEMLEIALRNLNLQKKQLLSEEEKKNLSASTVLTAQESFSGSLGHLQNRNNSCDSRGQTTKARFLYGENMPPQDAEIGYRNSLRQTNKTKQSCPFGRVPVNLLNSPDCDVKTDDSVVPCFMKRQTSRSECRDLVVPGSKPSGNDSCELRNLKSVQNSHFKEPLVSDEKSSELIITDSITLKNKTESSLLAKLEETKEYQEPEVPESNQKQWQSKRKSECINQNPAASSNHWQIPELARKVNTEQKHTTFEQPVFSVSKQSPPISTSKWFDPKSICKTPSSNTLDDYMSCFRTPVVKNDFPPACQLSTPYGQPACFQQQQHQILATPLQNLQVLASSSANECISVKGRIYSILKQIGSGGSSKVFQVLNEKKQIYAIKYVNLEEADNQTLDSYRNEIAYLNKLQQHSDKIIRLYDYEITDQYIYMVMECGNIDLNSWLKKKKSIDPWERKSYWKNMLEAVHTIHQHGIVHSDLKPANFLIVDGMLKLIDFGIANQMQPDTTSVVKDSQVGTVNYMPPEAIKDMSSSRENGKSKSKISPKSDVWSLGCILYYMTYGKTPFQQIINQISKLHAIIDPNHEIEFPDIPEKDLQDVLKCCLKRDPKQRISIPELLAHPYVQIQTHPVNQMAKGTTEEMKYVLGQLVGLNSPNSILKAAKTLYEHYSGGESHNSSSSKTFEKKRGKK
# Experiment: Mps-1 kinase assay (TR-FRET)
# Assay type: biochemical
# Conditions: Mps-1 TR-FRET kinase assay; avg; read-out: Mps1 avg (IC50 [mol/l])
# Procedure, shortened: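 Inhibition normalised between uninhibited reaction (0%) and enzyme-free wells (100%), using the blank-corrected TR-FRET 665/620 nm ratio after EDTA stop. Reaction: ~0.5 nM GST-Mps-1 full length, 10 μM ATP, 1 μM biotin-peptide, 60 min at 22 °C, after 15 min compound pre-binding, pH 7.7.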
row,SMILES,IC50
1,"Cc1nsc(Nc2cnc(C(F)(F)F)cn2)c1C(=O)Nc1ccc(F)c(OCCCNCC(F)(F)F)c1 [Example 306, N-(4-fluoro-3-{3-[(2,2,2-trifluoroethyl)amino]propoxy}phenyl)-3-methyl-5-{[5-(trifluoromethyl)pyrazin-2-yl]amino}-1,2-thiazole-4-carboxamide]",≥ 20 µM
2,"Cc1nsc(Nc2cnc(C(F)(F)F)cn2)c1C(=O)Nc1ccc(F)c(OCCCNCCC(F)(F)F)c1 [Example 307, N-(4-fluoro-3-{3-[(3,3,3-trifluoropropyl)amino]propoxy}phenyl)-3-methyl-5-{[5-(trifluoromethyl)pyrazin-2-yl]amino}-1,2-thiazole-4-carboxamide]",≥ 20 µM
3,"Cc1nsc(Nc2cnc(C(F)(F)F)cn2)c1C(=O)Nc1ccc(F)c(OCC2CCN(CC(F)F)CC2)c1 [Example 308, N-(3-{[1-(2,2-difluoroethyl)piperidin-4-yl]methoxy}-4-fluorophenyl)-3-methyl-5-{[5-(trifluoromethyl)pyrazin-2-yl]amino}-1,2-thiazole-4-carboxamide]",≥ 20 µM
4,"Cc1nsc(Nc2cnc(C(F)(F)F)cn2)c1C(=O)Nc1ccc(F)c(OCC2CCN(CCF)CC2)c1 [Example 309, N-(4-fluoro-3-{[1-(2-fluoroethyl)piperidin-4-yl]methoxy}phenyl)-3-methyl-5-{[5-(trifluoromethyl)pyrazin-2-yl]amino}-1,2-thiazole-4-carboxamide]",≥ 20 µM
5,"Cc1nsc(Nc2cnc(C(F)(F)F)cn2)c1C(=O)Nc1ccc(F)c(OCC2CCN(CCC(F)(F)F)CC2)c1 [Example 311, N-(4-fluoro-3-{[1-(3,3,3-trifluoropropyl)piperidin-4-yl]methoxy}phenyl)-3-methyl-5-{[5-(trifluoromethyl)pyrazin-2-yl]amino}-1,2-thiazole-4-carboxamide]",> 20 µM
6,"Cc1nsc(Nc2cnc(C(F)(F)F)cn2)c1C(=O)Nc1ccc(F)c(OCC2CCN(C(CF)CF)CC2)c1 [Example 312, N-(3-{[1-(1,3-difluoropropan-2-yl)piperidin-4-yl]methoxy}-4-fluorophenyl)-3-methyl-5-{[5-(trifluoromethyl)pyrazin-2-yl]amino}-1,2-thiazole-4-carboxamide]",≥ 20 µM
7,"Cc1nsc(Nc2cnc(C(F)(F)F)cn2)c1C(=O)Nc1ccc(OC2CCN(C(CF)CF)C2)nc1 (centres unmarked) [Example 313, N-(6-{[1-(1,3-difluoropropan-2-yl)pyrrolidin-3-yl]oxy}pyridin-3-yl)-3-methyl-5-{[5-(trifluoromethyl)pyrazin-2-yl]amino}-1,2-thiazole-4-carboxamide]",≥ 20 µM
8,"Cc1nsc(Nc2cnc(C(F)(F)F)cn2)c1C(=O)Nc1ccc(F)c(OC2CCN(CC(F)F)C2)c1 (centres unmarked) [Example 314, N-(3-{[1-(2,2-difluoroethyl)pyrrolidin-3-yl]oxy}-4-fluorophenyl)-3-methyl-5-{[5-(trifluoromethyl)pyrazin-2-yl]amino}-1,2-thiazole-4-carboxamide]",≥ 20 µM
9,"Cc1nsc(Nc2cnc(C(F)(F)F)cn2)c1C(=O)Nc1ccc(F)c(OC2CCN(CC(F)(F)F)C2)c1 (centres unmarked) [Example 315, N-(4-fluoro-3-{[1-(2,2,2-trifluoroethyl)pyrrolidin-3-yl]oxy}phenyl)-3-methyl-5-{[5-(trifluoromethyl)pyrazin-2-yl]amino}-1,2-thiazole-4-carboxamide]",≥ 20 µM
10,"Cc1nsc(Nc2cnc(C(F)(F)F)cn2)c1C(=O)Nc1ccc(F)c(OCC2CCN(CC(F)F)C2)c1 (centres unmarked) [Example 316, N-(3-{[1-(2,2-difluoroethyl)pyrrolidin-3-yl]methoxy}-4-fluorophenyl)-3-methyl-5-{[5-(trifluoromethyl)pyrazin-2-yl]amino}-1,2-thiazole-4-carboxamide]",≥ 20 µM
11,"Cc1nsc(Nc2cnc(C(F)(F)F)cn2)c1C(=O)Nc1ccc(F)c(OCC2CCN(CCF)C2)c1 (centres unmarked) [Example 317, N-(4-fluoro-3-{[1-(2-fluoroethyl)pyrrolidin-3-yl]methoxy}phenyl)-3-methyl-5-{[5-(trifluoromethyl)pyrazin-2-yl]amino}-1,2-thiazole-4-carboxamide]",> 20 µM

# The next lines start with the values.
row,IC50,SMILES
1,> 20 µM,"Cc1nsc(Nc2cnc(C(F)(F)F)cn2)c1C(=O)Nc1ccc(OCCCNCCC(F)(F)F)nc1 [Example 294, 3-methyl-5-{[5-(trifluoromethyl)pyrazin-2-yl]amino}-N-(6-{3-[(3,3,3-trifluoropropyl)amino]propoxy}pyridin-3-yl)-1,2-thiazole-4-carboxamide]"
2,> 20 µM,"Cc1nsc(Nc2cnc(C(F)(F)F)cn2)c1C(=O)Nc1ccc(OC2CCN(CCF)C2)nc1 (centres unmarked) [Example 295, N-(6-{[1-(2-fluoroethyl)pyrrolidin-3-yl]oxy}pyridin-3-yl)-3-methyl-5-{[5-(trifluoromethyl)pyrazin-2-yl]amino}-1,2-thiazole-4-carboxamide]"
3,> 20 µM,"Cc1nsc(Nc2cnc(C(F)(F)F)cn2)c1C(=O)Nc1ccc(OC2CCN(CC(F)F)C2)nc1 (centres unmarked) [Example 296, N-(6-{[1-(2,2-difluoroethyl)pyrrolidin-3-yl]oxy}pyridin-3-yl)-3-methyl-5-{[5-(trifluoromethyl)pyrazin-2-yl]amino}-1,2-thiazole-4-carboxamide]"
4,12 µM,"Cc1nsc(Nc2cnc(C(F)(F)F)cn2)c1C(=O)Nc1ccc(OC2CCN(CC(F)(F)F)C2)nc1 (centres unmarked) [Example 297, 3-methyl-N-(6-{[1-(2,2,2-trifluoroethyl)pyrrolidin-3-yl]oxy}pyridin-3-yl)-5-{[5-(trifluoromethyl)pyrazin-2-yl]amino}-1,2-thiazole-4-carboxamide]"
5,> 20 µM,"Cc1nsc(Nc2cnc(C(F)(F)F)cn2)c1C(=O)Nc1ccc(OC2CCN(CCC(F)(F)F)C2)nc1 (centres unmarked) [Example 298, 3-methyl-5-{[5-(trifluoromethyl)pyrazin-2-yl]amino}-N-(6-{[1-(3,3,3-trifluoropropyl)pyrrolidin-3-yl]oxy}pyridin-3-yl)-1,2-thiazole-4-carboxamide]"
6,> 20 µM,"Cc1nsc(Nc2cnc(C(F)(F)F)cn2)c1C(=O)Nc1ccc(N(C)C)c(OCCCN(C)CC(F)(F)F)c1 [Example 299, N-[4-(dimethylamino)-3-{3-[methyl(2,2,2-trifluoroethyl)amino]propoxy}phenyl]-3-methyl-5-{[5-(trifluoromethyl)pyrazin-2-yl]amino}-1,2-thiazole-4-carboxamide]"
7,> 20 µM,"Cc1nsc(Nc2cnc(C(F)(F)F)cn2)c1C(=O)Nc1ccc(N(C)C)c(OCCCN(C)CCC(F)(F)F)c1 [Example 300, N-[4-(dimethylamino)-3-{3-[methyl(3,3,3-trifluoropropyl)amino]propoxy}phenyl]-3-methyl-5-{[5-(trifluoromethyl)pyrazin-2-yl]amino}-1,2-thiazole-4-carboxamide]"
8,> 20 µM,"Cc1nsc(Nc2cnc(C(F)(F)F)cn2)c1C(=O)Nc1ccc(F)c(OCCCN(C)CC(F)F)c1 [Example 301, N-(3-{3-[(2,2-difluoroethyl)(methyl)amino]propoxy}-4-fluorophenyl)-3-methyl-5-{[5-(trifluoromethyl)pyrazin-2-yl]amino}-1,2-thiazole-4-carboxamide]"
9,> 20 µM,"Cc1nsc(Nc2cnc(C(F)(F)F)cn2)c1C(=O)Nc1ccc(F)c(OCCCN(C)CC(F)(F)F)c1 [Example 302, N-(4-fluoro-3-{3-[methyl(2,2,2-trifluoroethyl)amino]propoxy}phenyl)-3-methyl-5-{[5-(trifluoromethyl)pyrazin-2-yl]amino}-1,2-thiazole-4-carboxamide]"
10,≥ 20 µM,"Cc1nsc(Nc2cnc(C(F)(F)F)cn2)c1C(=O)Nc1ccc(F)c(OCCCN(C)CCC(F)(F)F)c1 [Example 303, N-(4-fluoro-3-{3-[methyl(3,3,3-trifluoropropyl)amino]propoxy}phenyl)-3-methyl-5-{[5-(trifluoromethyl)pyrazin-2-yl]amino}-1,2-thiazole-4-carboxamide]"
11,> 20 µM,"Cc1nsc(Nc2cncc(C(F)(F)F)n2)c1C(=O)Nc1ccc(OC2CCN(CCC(F)(F)F)CC2)nc1 [Example 304, 3-methyl-5-{[6-(trifluoromethyl)pyrazin-2-yl]amino}-N-(6-{[1-(3,3,3-trifluoropropyl)piperidin-4-yl]oxy}pyridin-3-yl)-1,2-thiazole-4-carboxamide]"
12,≥ 20 µM,"Cc1nsc(Nc2cnc(C(F)(F)F)cn2)c1C(=O)Nc1ccc(OCCNCC(F)F)nc1 [Example 305, N-(6-{2-[(2,2-difluoroethyl)amino]ethoxy}pyridin-3-yl)-3-methyl-5-{[5-(trifluoromethyl)pyrazin-2-yl]amino}-1,2-thiazole-4-carboxamide]"
